How the values were obtained:
Assay type in all cases: in vivo, Arabidopsis
NI16 RNA [1] = test: Induction of NI16 mRNA by SA and BTH spray, RNA blot hybridization; conditions: WS-O plants sprayed with 5 mM SA or 300 μm BTH
Experimental: RNA is prepared from 4 week old Wassilewskija (WS—O) plants, that are either sprayed with water, a 5 mM solution of sodium salicylate (SA), or a 300 μm solution of benzo-(1,2,3)-thiadiazole-7-carbothioic acid S-methyl ester (BTH). […] RNA extractions and RNA blot hybridizations are performed as described previously by Ausubel et al. (1987). NI16 RNA is induced 5–10 fold within 15 minutes of SA or BTH induction and reaches a peak of approximately 50 fold induction within 2 hours of SA treatment and 25 fold induction with BTH treatment.

NI16 gene = NI16 gene induction in NIM1-overexpressing plants treated with BTH
NI16 RNA [2] = test: Quantitative Northern, NI16 level in wild type and NI16-overexpressing lines after BTH; conditions: for NI16 level (relative): 24 hours after induction
Description: (§1) A NI16 construct is made in binary vector pBAR35S (obtained from Jeff Dangi, UNC-Chapel Hill). First a full-length clone is obtained by cloning the 5′ sequence of NI16 (obtained by 5′ RACE and cloned into AT vector pCR2.1) into the EcoRI site of the original pJG4-5 clone as an EcoRI fragment. Then the entire coding region of NI16 is PCR cloned back into pCR2.1 with the primers 16F and 16 R (Table 1). The resulting plasmid is cut with XbaI and SacI for cloning into pBAR35S. The clone is transformed into Agrobacterium strain GV3101 (Koncz and Schell, 1986). WS—O and nim1-4 plants are transformed using standard procedures and the resulting T1 seed is selected by spraying with a 60 μg/ml solution of BASTA every two days for 6 days after germination. BASTA resistant plants are analyzed for levels of NI16 and PR-1 RNA after 4 weeks.
(§2) 4 WS—O plants expressing NI16 above wild type levels are recovered. All have elevated levels of PR-1 RNA as detected on Northern blots. All 4 plants are taken to the T3 generations. Quantitative Northerns are done on two of the T3 lines, one with a relatively low level of N116 RNA (1-1B) and one with a high level of N116 RNA (2-1B). Northerns are hybridized with NI16 and PR-1 probes. Measurements are taken with a Molecular Dynamics Phosphoimager, which directly measures counts per unit area. The amount of PR-1 RNA correlates directly with the amount of NI16 RNA, i.e., the highest expressers of NI16 have the highest levels of PR-1. (Table 2). […] PR-1 levels are induced at the same rate in the two NI16 lines as the WS—O control, however steady state PR-1 levels are higher, especially at 0 and 10 μm BTH. NI16 may therefore be necessary for the SAR response, and overexpression of NI16 may activate a subset of the response. PR-1 is also elevated in nahG, nim1-1 and nim1-4 plants overexpressing NI16. Out of 34 nim1-1 T1 plants containing the 35S-NI16 construct, 22 have elevated levels of PR-1. Similarly, 18/26 nim1-4 and 20/27 nahG primary transformants have elevated PR-1 levels. In each case, high NI16 expression is correlated with high PR-1 levels. This is significant because nim1 and nahG plants are normally deficient in their ability to induce PR1 in response to pathogens. Furthermore, this provides evidence that overexpression of NI16 can at least partially compensate for the absence of SA and a functional NIM protein in plants.

NI16 transcript = NI16 transcript accumulation in nim1-4 plants after BTH treatment; conditions: after 2 and 24 hours of BTH treatment
PR-1 RNA = test: Quantitative Northern, PR-1 level in wild type and NI16-overexpressing lines after BTH; conditions: 24 hours after induction
Description: as §1, §2

[3] = NI16-overexpressing line 1-1B, 10 μm BTH
[4] = NI16-overexpressing line 1-1B, 100 μm BTH
[5] = NI16-overexpressing line 2-1B, 10 μm BTH
[6] = NI16-overexpressing line 2-1B, 100 μm BTH

## CSC(=O)c1cccc2nnsc12 [BTH, benzo(1,2,3)thiadiazole-7-carbothioic acid S-methyl ester]
NI16 RNA [1]
  time NI16 transcript remains highly induced after treatment: at least 48 hours
NI16 RNA [1]; peak, within 2 hours of SA treatment
  NI16 RNA peak induction: ~25 fold
NI16 gene
  NI16 gene induction: induced
NI16 RNA [2]; [3]
  NI16 level (relative): 1400
NI16 RNA [2]; [4]
  NI16 level (relative): 1480
NI16 RNA [2]; [5]
  NI16 level (relative): 14000
NI16 RNA [2]; [6]
  NI16 level (relative): 12000
NI16 RNA [2]; NI16 transgenic lines, BTH rates lower than normally used for protection to Peronospora parasitica
  effect on amount of NI16 RNA: do not significantly increase the amount of NI16 RNA
NI16 RNA [2]; genotype WS, 10 μm BTH
  NI16 level (relative): 10
NI16 RNA [2]; genotype WS, 100 μm BTH
  NI16 level (relative): 90
NI16 transcript
  NI16 transcript accumulation: unable to accumulate NI16 transcript
PR-1 RNA; [3]
  PR-1 level (relative): 30
PR-1 RNA; [4]
  PR-1 level (relative): 120
PR-1 RNA; [5]
  PR-1 level (relative): 70
PR-1 RNA; [6]
  PR-1 level (relative): 140
PR-1 RNA; genotype WS, 10 μm BTH
  PR-1 level (relative): 30
PR-1 RNA; genotype WS, 100 μm BTH
  PR-1 level (relative): 90

From US7199286B2, “Plant-derived novel pathogen and SAR-induction chemical induced promoters, and fragments thereof” (Syngenta Participations AG, priority 1999, dated 2007)
